Experimental data reported in ChEMBL document CHEMBL4043253, “Synthesis of novel vitamin K derivatives with alkylated phenyl groups introduced at the ω-terminal side chain and evaluation of their neural differentiation activities” (Bioorg Med Chem Lett, 2017).
The source made the active and inactive calls. No cut-off for these calls is given here.

What was measured:
[1] = test system: PC-12; experiment: Cytotoxicity against rat PC12 cells by MTT assay; type: cell-based
[2] = test system: PC-12; experiment: Induction of neurite elongation in rat PC12 cells assessed as […] mRNA expression at 1 uM; type: functional, cell-based
[3] = test system: Neural stem cell; experiment: Induction of neuronal differentiation in C57BL/6J mouse neural stem cells assessed as Map2 mRNA expression at 1 uM measured after 4 days by RT-PCR analysis; type: functional, cell-based
[4] = test system: Neural stem cell; experiment: Induction of neuronal differentiation in C57BL/6J mouse neural stem cells assessed as expression of Map2 at 1 uM administered every 2 days for 4 days by CF594/DAPI immunostaining based fluorescence microscopic microscopic analysis; type: functional

| SMILES | Activity [1] | Activity [2] | Activity [3] | Activity [4] |
| --- | --- | --- | --- | --- |
| CC1=C(C/C=C(\C)CC/C=C(\C)Cc2cc(C)cc(C)c2)C(=O)c2ccccc2C1=O | Non-Toxic |  |  |  |
| CC1=C(C/C=C(\C)CC/C=C(\C)CC/C=C(\C)Cc2cc(C)cc(C)c2)C(=O)c2ccccc2C1=O | Non-Toxic |  |  |  |
| CC1=C(C/C=C(\C)CC/C=C(\C)Cc2c(C)cc(C)cc2C)C(=O)c2ccccc2C1=O | Non-Toxic |  |  |  |
| CC(C)=CCC/C(C)=C/CC/C(C)=C/CC/C(C)=C/CC1=C(C)C(=O)c2ccccc2C1=O [MENATETRENONE] | Non-Toxic | inactive | Active |  |
| CC1=C(C/C=C(\C)CC/C=C(\C)CC/C=C(\C)Cc2ccc(C)cc2C)C(=O)c2ccccc2C1=O | Non-Toxic |  |  |  |
| CC1=C(C/C=C(\C)CC/C=C(\C)CC/C=C(\C)Cc2cccc(C)c2C)C(=O)c2ccccc2C1=O | Non-Toxic |  |  |  |
| CC1=C(C/C=C(\C)CC/C=C(\C)CC/C=C(\C)Cc2ccc(C)c(C)c2)C(=O)c2ccccc2C1=O | Non-Toxic |  |  |  |
| CC1=C(C/C=C(\C)CC/C=C(\C)Cc2cccc(C(C)(C)C)c2)C(=O)c2ccccc2C1=O | Non-Toxic |  | Active | Active |
| CC1=C(C/C=C(\C)CC/C=C(\C)CC/C=C(\C)Cc2cccc(C(C)(C)C)c2)C(=O)c2ccccc2C1=O | Non-Toxic |  | Active | Active |
| CC1=C(C/C=C(\C)CC/C=C(\C)Cc2ccc(C)cc2C)C(=O)c2ccccc2C1=O | Non-Toxic |  |  |  |
| CC1=C(C/C=C(\C)CC/C=C(\C)Cc2ccc(C)c(C)c2)C(=O)c2ccccc2C1=O | Non-Toxic |  | Active | inactive |
| CC1=C(C/C=C(\C)CC/C=C(\C)Cc2cccc(C)c2C)C(=O)c2ccccc2C1=O | Non-Toxic |  | Active | inactive |
| CC1=C(C/C=C(\C)CC/C=C(\C)CC/C=C(\C)Cc2c(C)cc(C)cc2C)C(=O)c2ccccc2C1=O | Non-Toxic |  |  |  |
